# Measurements reported in patent US8431166B2, “Composition comprising the extract of Anemarrhena asphodeloides Bunge or the compounds isolated from the same for preventing and treating lipid metabolism disorder” (EWHA University-Industry Collaboration Foundation, priority 2009, dated 2013).
# Where two headings read alike, the source gives them in different places.
# Test system: Pre-adipocytes and 3T3-L1 cell
# Assay: Inhibitory effect on adipocyte differentiation (Oil-red O staining)
# Type: cell-based
# Details: 3T3-L1, Oil-red O staining; for IC50: day 7, IC50 determined using BioDataFit 1.02, read-out: Inhibitory Activities of Isolated Compound on Adipocyte Differentiation(IC50)
# Experimental: Oil-red O was dissolved in 100% isopropanol, and stirred for about 16 hrs to prepare a 0.3% Oil-red O staining solution. Distilled water was added to the solution at a ratio of 0.3% Oil-red O:distilled water=6:4 (v/v), and mixed with each other. The solution was filtered using 3M paper once, and filtered again using a 0.2 μm syringe filter.
# Pre-adipocytes and 3T3-L1 cell (American Tissue Culture. Collection, ATCC) were maintained in DMEM (Dulbecco's Modified Eagle Medium, Gibco-BRL, Grand Island, N.Y., USA) supplemented with 10% bovine calf serum. 4×10^4 of cells were suspended in 0.5 ml and seeded in each well of 24-well plate. The cells were grown to confluence for 48 hrs in the same medium and the medium was replaced with DMEM containing insulin (5 μg/mL), 10 μM rosiglitazone, 1 μM dexamethasone, and 10% fetal bovine serum (FBS) to differentiate adipocytes. […] As a control group, the cells were treated with Resveratrol (Sigma-Aldrich, 3,4′,5-Trihydroxy-trans-stilbene, 5-[(1E)-2-(4-Hydroxyphenyl)ethenyl]-1,3-benzenediol), which is known to inhibit the adipocyte differentiation and prevent diabetes, dissolved in DMSO at the same concentration. The cells were then replaced with 10% FBS/DMEM supplemented with 5 μg/mL insulin after 48 hrs, and also re-treated with each compound. After 48 hrs, the medium was replaced with fresh 10% FBS/DMEM. Day 7 after induction of adipocyte differentiation, the differentiated adipocytes were examined by Oil-red O staining. After removing the culture medium, the cells were gently washed with PBS once, and fixed in 10% formalin at room temperature for 1 hr. […] To wash off the staining solution, the cells were washed with distilled water, and dried (uncapped). After image scanning, the stained cells were treated with 100% isopropanol for 10 min to wash out the staining solution. The absorbance at 500 nm was measured to compare the Oil-red O staining between the compound-treated groups and the control group.
Compound,IC50 [µM],inhibitory effects on adipocyte differentiation (in words),"IC50 (Mus musculus, 168 h) [µM]"
Broussonin A [Compound 6],74.5,,
COc1ccc(CCCc2ccc(O)cc2)c(O)c1 [Broussonin A],,showed inhibitory effects on adipocyte differentiation,
"COc1cc(O)ccc1C(=O)/C=C/c1ccc(O)cc1 [Compound 10, 2′-O-Methylisoliquiritigenin]",41.8,showed inhibitory effects on adipocyte differentiation,
"O=C(/C=C/c1ccc(O)cc1)c1ccc(O)cc1O [Compound 8, 2′,4′,4-Trihydroxychalcone]",,showed inhibitory effects on adipocyte differentiation,96.4
(−)-4′-O-Methylnyasol [Compound 4],45.9,showed inhibitory effects on adipocyte differentiation,
"COc1cc(O)cc2c1C(=O)CC(c1ccc(O)cc1)O2 (stereo not drawn) [Compound 12, 4′,7-Dihydroxy-5-methoxyflavanone]",,,260
"Oc1ccc(/C=C/c2cc(O)cc(O)c2)cc1 [Resveratrol, 3,4′,5-Trihydroxy-trans-stilbene, reference compound]",,,31.4
"C=CC(CC(=O)c1ccc(O)cc1)c1ccc(O)cc1 (stereo not drawn) [Compound 7, 1,3-bis-di-p-hydroxyphenyl-4-penten-1-one]",326,,
"Oc1ccc(CC2COc3cc(O)ccc3C2)cc1 (stereo not drawn) [Compound 9, 7,4′-Dihydroxyhomoisoflavane]",> 500,,
"O=C(/C=C/c1ccc(O)cc1)c1ccc(O)cc1 [Compound 14, 4,4′-Dihydroxychalcon]",,,> 500
"Cc1c(O)cc2c(c1O)C(=O)/C(=C/c1ccc(O)cc1)CO2 [Compound 1, (E)-5,7-Dihydroxy-3-(4′-hydroxybenzylidene)-6-methylchroman-4-one]",,,336
"O=C(C#Cc1ccc(O)cc1)c1ccc(O)cc1 [Compound 3, 1,3-bis(4-hydroxyphenyl)prop-2-yn-1-one]",,excellent inhibitory effects on adipocyte differentiation even at lower concentration than the control group Resveratrol,5.3
"C=C[C@H](/C=C\c1ccc(O)cc1)c1ccc(O)cc1 [Compound 5, (−)-Nyasol]",,,108
"COc1cc(O)cc(O)c1C(=O)CCc1ccc(O)cc1 [Compound 13, 2′-O-methylphloretin]",> 500,,
